The record followed here is ChEMBL document CHEMBL2073767, “Novel membrane transporter OCTN1 mediates multispecific, bidirectional, and pH-dependent transport of organic cations” (J Pharmacol Exp Ther, 1999).

The target of series [1] is T1, Solute carrier family 22 member 4 (Homo sapiens, UniProt Q9H015).
T1 sequence (Q9H015 whole entry): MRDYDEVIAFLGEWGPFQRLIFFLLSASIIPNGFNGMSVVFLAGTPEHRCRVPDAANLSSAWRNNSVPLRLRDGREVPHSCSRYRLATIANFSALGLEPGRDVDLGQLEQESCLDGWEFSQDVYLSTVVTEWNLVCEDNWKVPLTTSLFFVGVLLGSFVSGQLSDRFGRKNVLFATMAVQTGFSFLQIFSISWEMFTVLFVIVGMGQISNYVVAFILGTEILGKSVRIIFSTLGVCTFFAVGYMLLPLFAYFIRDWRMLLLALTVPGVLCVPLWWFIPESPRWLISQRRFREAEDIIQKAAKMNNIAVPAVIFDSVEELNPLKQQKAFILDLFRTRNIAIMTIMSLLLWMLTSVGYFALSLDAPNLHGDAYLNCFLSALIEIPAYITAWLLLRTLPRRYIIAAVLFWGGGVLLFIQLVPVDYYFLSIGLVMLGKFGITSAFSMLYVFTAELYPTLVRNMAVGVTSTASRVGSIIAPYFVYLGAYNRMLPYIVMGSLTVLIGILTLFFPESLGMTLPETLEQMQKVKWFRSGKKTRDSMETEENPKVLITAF
Put plainly: TP_TRANSPORTER: uptake in Xenopus laevis oocytes. It counts as functional, cell-based. The conditions noted are these: oocyte.

Series [2] has as its target T1, Solute carrier family 22 member 4. Put plainly: TP_TRANSPORTER: inhibition of TEA uptake (TEA: 60 uM, Verapamil: 1000 uM) in Xenopus laevis oocytes. It counts as functional, cell-based, Oocyte. The arrangement: scale not given: the % may be the effect or the level left. The conditions noted are these: probe TEA, read-out: Activity.
Series [3] has the same target. Put plainly: TP_TRANSPORTER: inhibition of TEA uptake (TEA: 60 uM, Quinidine: 1000 uM) in Xenopus laevis oocytes. The series is classed as functional, cell-based, Oocyte. The arrangement: scale not given: the % may be the effect or the level left. The conditions noted are these: probe TEA, read-out: Activity.
Series [4] has the same target. Put plainly: TP_TRANSPORTER: inhibition of TEA uptake (TEA: 60 uM, Arginine: 5000 uM) in OCTN1-expressing HEK293 cells. The series is classed as functional, cell-based. The conditions noted are these: hek293, 5000 µM.
For series [5] the target is unchanged. Briefly: TP_TRANSPORTER: inhibition of TEA uptake (TEA: 60 uM, PAH: 5000 uM) in Xenopus laevis oocytes. It counts as functional, cell-based. The conditions noted are these: oocyte.
Series [6] shares this target. Briefly: TP_TRANSPORTER: inhibition of TEA uptake (TEA: 60 uM, Lysine: 5000 uM) in Xenopus laevis oocytes. It counts as functional, cell-based. The conditions noted are these: oocyte.
For series [7] the target is unchanged. Put plainly: TP_TRANSPORTER: inhibition of TEA uptake (TEA: 60 uM, Spermidine: 5000 uM) in Xenopus laevis oocytes. The series is classed as functional, cell-based. The conditions noted are these: oocyte.
The target is the same in series [8]. Put plainly: TP_TRANSPORTER: inhibition of TEA uptake (TEA: 60 uM, L-Carnitine: 1000 uM) in Xenopus laevis oocytes. It counts as functional, cell-based, Oocyte. Also on record: scale not given: the % may be the effect or the level left. The conditions noted are these: probe TEA, read-out: Activity.
Series [9] has the same target. Briefly: in vitro. The conditions noted are these: xenopus laevis, Xenopus laevis oocytes, probe TEA.
Series [10] has the same target. Briefly: TP_TRANSPORTER: inhibition of TEA uptake (TEA: 60 uM, D-Carnitine: 1000 uM) in Xenopus laevis oocytes. The series is classed as functional, cell-based, Oocyte. Also on record: scale not given: the % may be the effect or the level left. The conditions noted are these: probe TEA, read-out: Activity.
Series [11] shares this target. Briefly: TP_TRANSPORTER: inhibition of TEA uptake (TEA: 60 uM, Levofloxacin: 1000 uM) in Xenopus laevis oocytes. The conditions noted are these: oocyte. It counts as functional, cell-based. Also on record: scale not given: the % may be the effect or the level left.
Series [12] shares this target. Put plainly: TP_TRANSPORTER: inhibition of TEA uptake (TEA: 60 uM, NMN: 5000 uM) in Xenopus laevis oocytes. It counts as functional, cell-based. The conditions noted are these: oocyte.
Series [13] shares this target. Briefly: TP_TRANSPORTER: inhibition of TEA uptake (TEA: 60 uM, OFLX: 1000 uM) in Xenopus laevis oocytes. The series is classed as functional, cell-based, Oocyte. The arrangement: scale not given: the % may be the effect or the level left. The conditions noted are these: probe TEA, read-out: Activity.
For series [14] the target is unchanged. Put plainly: in vitro. The conditions noted are these: xenopus laevis, Xenopus laevis oocytes, probe TEA. This is another data set of the same source.
The target is the same in series [15]. Put plainly: in vitro. The conditions noted are these: xenopus laevis, Xenopus laevis oocytes, probe TEA. The source holds these as a separate data set.
For series [16] the target is unchanged. Briefly: TP_TRANSPORTER: inhibition of TEA uptake (TEA: 60 uM, Procainamide: 1000 uM) in Xenopus laevis oocytes. It counts as functional, cell-based, Oocyte. Also on record: scale not given: the % may be the effect or the level left. The conditions noted are these: probe TEA, read-out: Activity.
Series [17] has the same target. Briefly: TP_TRANSPORTER: inhibition of TEA uptake (TEA: 60 uM, CER: 1000 uM) in Xenopus laevis oocytes. The conditions noted are these: probe TEA, read-out: Activity. It counts as functional, cell-based, Oocyte. The arrangement: scale not given: the % may be the effect or the level left.
For series [18] the target is unchanged. Briefly: TP_TRANSPORTER: inhibition of TEA uptake (TEA: 60 uM, Guanidine: 5000 uM) in Xenopus laevis oocytes. Also on record: scale not given: the % may be the effect or the level left. The conditions noted are these: probe TEA, read-out: Activity. The series is classed as functional, cell-based, Oocyte.
Series [19] has the same target. Briefly: TP_TRANSPORTER: inhibition of TEA uptake (TEA: 60 uM, PCG: 5000 uM) in Xenopus laevis oocytes. It counts as functional, cell-based. The conditions noted are these: oocyte.
Series [20] shares this target. Briefly: TP_TRANSPORTER: inhibition of TEA uptake (TEA: 60 uM, Quinine: 1000 uM) in Xenopus laevis oocytes. The arrangement: scale not given: the % may be the effect or the level left. It counts as functional, cell-based. The conditions noted are these: oocyte.
Series [21] has the same target. Put plainly: TP_TRANSPORTER: inhibition of TEA uptake (TEA: 60 uM, Pyrilamine: 1000 uM) in Xenopus laevis oocytes. The arrangement: scale not given: the % may be the effect or the level left. The series is classed as functional, cell-based, Oocyte. The conditions noted are these: probe TEA, read-out: Activity.
Substrate in series [22]: CC[N+](CC)(CC)CC
Briefly: cells, lysate or membranes named.

In the case of `COc1ccc(CCN(C)CCCC(C#N)(c2ccc(OC)c(OC)c2)C(C)C)cc1OC` (stereo unspecified), in series [1], the Activity entry was “substrate [+]”. For the same molecule, in series [2], the activity at 1000 µM was determined as 8.8%. For `C=C[C@H]1C[N@@]2CC[C@H]1C[C@@H]2[C@@H](O)c1ccnc2ccc(OC)cc12` [QUINIDINE], the Activity result in series [1] was “substrate [+]”. Besides, the activity at 1000 µM in [3] is 15.2%. Take `N=C(N)NCCC[C@H](N)C(=O)O` [ARGININE]: the Activity entry in series [4] was “is not an inhibitor [-]”. As for `Nc1ccc(C(=O)NCC(=O)O)cc1` [AMINOHIPPURIC ACID], the Activity result in series [5] was “is not an inhibitor [-]”. Take `NCCCC[C@H](N)C(=O)O` [LYSINE]: in series [6], the Activity result was “is not an inhibitor [-]”. Consider `NCCCCNCCCN` [SPERMIDINE], for which the Activity result in series [7] was “is not an inhibitor [-]”. As to `C[N+](C)(C)CC(O)CC(=O)[O-]` (stereo unspecified) [CARNITINE], the Activity result in [1] is “substrate [+]”. The activity at 1000 µM in [8] stood at 32.5%. `C[N+](C)(C)CCO` [CHOLINE] returned an activity at 5000 µM in [9] of 73.2%.

Turning to `C[N+](C)(C)C[C@@H](O)CC(=O)[O-]` [D-CARNITINE], the activity at 1000 µM in [10] amounted to 53.9%. As to `C[C@H]1COc2c(N3CCN(C)CC3)c(F)cc3c(=O)c(C(=O)O)cn1c23.C[C@H]1COc2c(N3CCN(C)CC3)c(F)cc3c(=O)c(C(=O)O)cn1c23.O` [LEVOFLOXACIN], in [11], the Activity stood at 63.6%. In the case of `CNC(=O)c1cccnc1` [NICOTINYL METHYLAMIDE], the Activity entry in [12] was “is not an inhibitor [-]”. `CC1COc2c(N3CCN(C)CC3)c(F)cc3c(=O)c(C(=O)O)cn1c23` (stereo unspecified) [OFLOXACIN]: the activity at 1000 µM in series [13] was determined as 61.4%. As to `CN1CCC[C@H]1c1cccnc1` [NICOTINE], the activity at 1000 µM in [14] was 71.6%.

For the molecule `Clc1cccc(Cl)c1N=C1NCCN1` [CLONIDINE], in series [15], the activity at 1000 µM was 70.9%. In the case of `CCN(CC)CCNC(=O)c1ccc(N)cc1` [PROCAINAMIDE], in [16], the activity at 1000 µM stood at 15.6%.

As to `O=C(Cc1cccs1)N[C@@H]1C(=O)N2C(C(=O)[O-])=C(C[n+]3ccccc3)CS[C@H]12` [CEPHALORIDINE], in [17], the activity at 1000 µM was 35.7%. Regarding `N=C(N)N` [GUANIDINE], the activity at 5000 µM in series [18] was determined as 89.6%. `CC1(C)S[C@@H]2[C@H](NC(=O)Cc3ccccc3)C(=O)N2[C@H]1C(=O)O` [PENICILLIN G]: the results for the Activity entry in series [1] and in series [19] were “is not a substrate [-]” and “is not an inhibitor [-]”, respectively. Molecule `C=C[C@H]1C[N@@]2CC[C@H]1C[C@H]2[C@H](O)c1ccnc2ccc(OC)cc12` [QUININE] gave an Activity in series [20] of 24.6%. Regarding `COc1ccc(CN(CCN(C)C)c2ccccn2)cc1` [PYRILAMINE], the Activity entry in series [1] is “substrate [+]”. Further, in series [21], the activity at 1000 µM amounted to 0%.

B1: Solute carrier family 22 member 4 (Homo sapiens) (protein)
chain: T1 sequence (Q9H015 whole entry)
In the case of B1, in series [22], the Km – broadly, the concentration of substrate that gives half-maximal velocity – worked out at 436 µM.
